Consider twelve compounds from EPA's ToxValDB 9.5.

Data set [1] has as its system Mus musculus. The data set can be described thus: LD0; higher = less toxic. Particulars: acute; injection; Intraperitoneal.
The test system of data set [2] is Rattus norvegicus.
Data set [3] deals with Oryctolagus sp. As to conditions: for LD50: acute.
Data set [4] has as its system Mus musculus. Particulars: oral.
Data set [5] has as its system Rattus norvegicus. Particulars: subchronic, oral, gavage, M/F.
Data set [6] concerns Rattus norvegicus. The data set can be described thus: LC0; higher = less toxic. As to conditions: acute; inhalation.
Data set [7] has as its system Homo sapiens. As to conditions: clinical, duration: 14 days, oral, M, hematological.
Data set [8] relates to Homo sapiens. Particulars: clinical, oral.
Data set [9] has as its system Cricetulus sp. Particulars: duration: 5 days, oral, gavage, Hamster.
For data set [10], the system named is Rattus norvegicus. As to conditions: subchronic, oral, M/F.
The subject of data set [11] is Rattus norvegicus. Particulars: subchronic; duration: 13 weeks; oral; gavage; Liver: Hepatotoxicity.
The subject of data set [12] is Cricetulus sp. As to conditions: subchronic; duration: 13 weeks; inhalation; intermittent; Hamster; Nasal cavity: Olfactory degeneration.
For data set [13], the system named is Gallus sp. Particulars: subchronic; duration: 90 days; oral; F; ataxia, delayed neurotoxicity and weight loss.
Data set [14] has as its system Gallus sp. Particulars: subchronic; duration: 3 months; oral; capsule; Nervous system: Ataxia + Nervous system: Delayed neurotoxicity + Whole body: Decreased weight.
Data set [15] deals with Oryctolagus sp. The data set can be described thus: LD0; higher = less toxic. As to conditions: acute; dermal; New Zealand.
For data set [16], the system named is Rattus norvegicus. Particulars: M/F.
For data set [17], the system named is Mouse, Rat. As to conditions: subchronic; duration: 90 days; inhalation; intermittent; Adrenal: Lesions + Blood: Hematological effects + Kidney: Lesions + Liver: Lesions.
In data set [18] the test system is Homo sapiens. The data set can be described thus: LD100; higher = less toxic. Particulars: acute; oral.
The test system of data set [19] is Canidae. As to conditions: subchronic; duration: 13 weeks; oral; diet; M/F; Dog Other; Male reproductive toxicity and other effects (including decreased body weight gain), increased liver and kidney weights.
In data set [20] the test system is Dog, Rat. As to conditions: subchronic; duration: 13 weeks; oral; diet; Kidney: Effects + Liver: Effects.
For data set [21], the system named is Anatidae. As to conditions: oral.
For data set [22], the system named is Canidae. Particulars: subchronic, duration: 5 weeks, inhalation, unknown, renal.
For data set [23], the system named is Monkey. As to conditions: chronic; duration: 5 years; inhalation; M/F; Rhesus; respiratory.
Setting [24] is: subchronic, duration: 90 days, inhalation, Sprague-Dawley.
[25] abbreviates: short-term, duration: 28 days, dermal, occlusive, New Zealand.
[26] abbreviates: duration: 90 days, diet, increased liver and kidney weight.

Where “and” joins values, the source holds several entries; their conditions need not be identical. Identical values can stand only once. Where only a bound is given, the exact number is not on record here.

Turning to `CCCCC(CC)COP(=O)(O)OCC(CC)CCCC` (configuration not stated) [Bis(2-ethylhexyl) phosphate], in data set [1], the LD0 was 63 mg/kg. In addition, the median lethal dose (LD50) in [2] (acute, injection, Intraperitoneal) is ≥ 50 mg/kg and ≤ 100 mg/kg; in data set [2] (acute, oral) it was 4740 mg/kg; in data set [2] (acute, oral, gavage, Wistar) it was 1400 mg/kg; in [3] (dermal), 1200 mg/kg; in [3] (dermal, occlusive, New Zealand) it was more than 2000 mg/kg.
As for `O=C(O)CCl` [Chloroacetic acid], the NOAEL was 25 mg/kg-day in [2] (chronic, duration: 208 days, oral, diet, M, Wistar); 30 mg/kg-day in data set [2] (subchronic, duration: 13 weeks, oral, gavage, Fischer 344); 100 mg/kg-day in data set [4] (subchronic, duration: 13 weeks, gavage, B6C3F1). Also, in data set [5] (duration: 13 weeks, Fischer 344, Deaths + Body Weight Changes: decrease + Blood Chemistry: Ch E decrease, Ca decrease, TP decrease + Absolute Organ Weight: Heart decrease, …), the NOEL is less than 30 mg/kg-day. Besides, the LC0 in data set [6] came to 0.005 mg/L.
On to `[Co]` [Cobalt], for which the lowest-observed-adverse-effect level (LOAEL) in data set [7] came to 1 mg/kg-day; in data set [8] (duration: 2 weeks, Endocrine), 1 mg/kg-day. In data set [7] (capsule), this compound showed an NOAEL of 0.8 mg/kg-day.
In the case of `COC(=O)CCSCCC(=O)OC` [Dimethyl 3,3'-thiodipropionate], the 50% lethal dose (LD50) is more than 2500 mg/kg in [2] (acute, oral) and more than 2000 mg/kg in [4] (acute). For the same compound, the NOAEL in data set [2] (reproduction developmental, duration: 13 weeks, oral, gavage, Sprague-Dawley) amounted to 350 mg/kg-day; in data set [2] (reproduction developmental, duration: 10 days, oral, gavage, F, Wistar) it was 1600 mg/kg-day; in data set [2] (subchronic, duration: 13 weeks, oral, gavage, Sprague-Dawley) it was 350 mg/kg-day; in data set [3] (developmental, duration: 13 days, oral, gavage, Dutch-belted), 1000 mg/kg-day; in data set [9] (developmental), 1600 mg/kg-day; in data set [9] (reproduction developmental, F), 1600 mg/kg-day.
For `O=Cc1ccco1` [Furfural], the lowest observed adverse effect level (LOAEL) in data set [10] (hepatocellular vacuolization) came to 11 mg/kg-day; in data set [11], 7.9 mg/kg-day. The NOEL in data set [5] (duration: 13 weeks, Fischer 344, Deaths + Absolute Organ Weight: Kidney increase, Liver increase + Relative Organ Weight: Kidney increase, Liver increase + Histopathology: …) was less than 11 mg/kg-day. Also, the NOAEL in data set [12] was 78.6 mg/m3.
For the compound `CCCCSP(SCCCC)SCCCC` [Merphos], the LOAEL in data set [13] turned out to be 0.5 mg/kg-day. The NOEL in data set [13] and in data set [14] was 0.1 mg/kg-day each time. In data set [2] (acute, oral, gavage, Crl), this compound gave an LD50 of 2480 mg/kg.
The compound `CSSC` [Methyl disulfide] yielded an LD0 in data set [15] not below 2000 mg/kg. Besides, the LC50 in data set [2] (acute, inhalation, Sprague-Dawley) stood at 3100 mg/m3. The LD50 in data set [2] (acute, oral, gavage, Sprague-Dawley) is ≥ 290 mg/kg and ≤ 500 mg/kg; in data set [2] (acute, oral, gavage, Wistar), 190 mg/kg. The NOAEL in data set [2] (developmental, duration: 10 days, inhalation, Crl:CD(SD) BR) is 57.8 mg/m3; in data set [2] (reproduction developmental, duration: 10 days, inhalation, F, Crl:CD(SD) BR), less than 38.5 mg/m3; in [2] (setting [24]), 38.5 mg/m3; in data set [3] (setting [25]), 10.6 mg/kg-day. Also, the values for the LOAEL in data set [2] (setting [24]) and in [3] (setting [25]) were 193 mg/m3 and 106 mg/kg-day, respectively.
Consider `O=[N+]([O-])c1ccccc1` [Nitrobenzene], for which the NOEL in data set [5] (Fischer 344, Deaths + Body Weight Changes: decrease + Food Consumption: decrease + Hematology: RBC decrease, WBC increase, , Hgb decrease, , Hct decrease…) was less than 5 mg/kg-day; in data set [5] (Sprague-Dawley, Deaths + Clinical Observation: Piloerection, salivation, emacation Anemia, torticollis, rotating movement, abnormal gait + Body Weight …), less than 20 mg/kg-day. Moreover, the LOAEL amounted to 25.2 mg/m3 in [16] (subchronic, duration: 90 days, inhalation, F344 / Sprague-Dawley, hematological) and 25 mg/m3 in data set [17].
As to `CCCCCCCCCCCCCCCCCC(=O)O` [Octadecanoic acid], the LD50 in data set [2] (acute, oral) is 4600 mg/kg. In [18], this compound returned an LD100 of 14300 mg/kg.
Consider `Cc1cc(Cl)ccc1OCCCC(=O)O` [Thitrol], for which the LEL in data set [10] (setting [26]) and in data set [19] was 40 mg/kg-day in each case. The NOEL in data set [10] (setting [26]), in [19] and in data set [20] was 12 mg/kg-day in each case.
In turn, `O=[N+]([O-])OCC(CO[N+](=O)[O-])O[N+](=O)[O-]` [Trinitroglycerin] gave an LOAEL in data set [8] (Hematologic) of 0.036 mg/kg-day.
In the case of `[U]` [Uranium], the values for the NOAEL in data set [21] and in data set [22] (unspecified) were 16 mg/kg-day and 1.1 mg/m3, respectively. Moreover, the LOAEL in data set [16] (chronic, duration: 91 days, oral, drinking water, Sprague-Dawley, renal) stood at 0.06 mg/kg-day; in data set [22] (not reported) it was 0.15 mg/m3; in [23], 5.1 mg/m3.
